Experimental findings from ChEMBL document CHEMBL3045031, “Study on synthesis of thalidomide analogues and their bioactivities; inhibition on iNOS pathway and cytotoxic effects” (Med Chem Res, 2012) are described below.

Experiment [1] addresses T1, Nitric oxide synthase, inducible (Mus musculus) (UniProt P29477).
T1 sequence (whole entry): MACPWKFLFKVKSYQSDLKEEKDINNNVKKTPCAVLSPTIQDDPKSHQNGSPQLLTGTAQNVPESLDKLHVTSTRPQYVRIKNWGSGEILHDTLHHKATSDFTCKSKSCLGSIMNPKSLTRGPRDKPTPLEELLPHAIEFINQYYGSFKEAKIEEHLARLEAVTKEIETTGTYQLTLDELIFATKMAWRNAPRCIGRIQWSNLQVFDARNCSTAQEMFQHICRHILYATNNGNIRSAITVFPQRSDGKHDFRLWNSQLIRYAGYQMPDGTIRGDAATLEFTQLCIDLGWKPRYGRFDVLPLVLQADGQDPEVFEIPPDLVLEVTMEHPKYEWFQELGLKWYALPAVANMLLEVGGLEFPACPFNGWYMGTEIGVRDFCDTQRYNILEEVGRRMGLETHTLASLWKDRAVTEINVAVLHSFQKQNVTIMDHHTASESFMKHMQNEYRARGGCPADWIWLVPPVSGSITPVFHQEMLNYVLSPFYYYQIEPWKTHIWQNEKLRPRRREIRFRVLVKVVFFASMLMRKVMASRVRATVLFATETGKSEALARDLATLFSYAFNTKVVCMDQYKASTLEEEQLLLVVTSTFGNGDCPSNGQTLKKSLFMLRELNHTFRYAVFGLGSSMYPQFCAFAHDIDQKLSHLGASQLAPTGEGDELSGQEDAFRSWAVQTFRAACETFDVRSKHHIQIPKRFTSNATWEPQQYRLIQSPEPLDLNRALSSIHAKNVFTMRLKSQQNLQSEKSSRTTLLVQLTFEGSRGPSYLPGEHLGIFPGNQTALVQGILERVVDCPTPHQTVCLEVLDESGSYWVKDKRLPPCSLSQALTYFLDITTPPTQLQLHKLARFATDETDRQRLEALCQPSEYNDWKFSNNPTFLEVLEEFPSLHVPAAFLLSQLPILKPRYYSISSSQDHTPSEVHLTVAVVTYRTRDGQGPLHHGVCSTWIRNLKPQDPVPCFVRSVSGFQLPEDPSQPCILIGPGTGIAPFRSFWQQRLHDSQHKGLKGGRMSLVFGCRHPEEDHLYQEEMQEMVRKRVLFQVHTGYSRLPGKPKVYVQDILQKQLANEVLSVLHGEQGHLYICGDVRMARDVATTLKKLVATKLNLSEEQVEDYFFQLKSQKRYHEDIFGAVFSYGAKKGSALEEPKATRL
The experiment can be described thus: Inhibition of iNOS in Mus musculus (mouse) RAW 264.7 cells assessed as inhibition of LPS-induced nitrite production pretreated for 24 hr before stimulation with LPS measured after 18 hr by […]. Details: concentration or dose not given beside the values. The settings on record: concentration not given here. On the technique in general: In an ELISA, binding on a coated surface is turned into a signal by an enzyme label.

The test system of experiment [2] is NUGC. The experiment can be described thus: Cytotoxicity against Homo sapiens (human) NUGC cells after 24 hr by MTT assay. Format: functional, cell-based.
A short description of experiment [3]: Cytotoxicity against Homo sapiens (human) HONE1 cells after 24 hr by MTT assay. The experiment is classed as functional, cell-based. The note with it: HONE1, 24 h.
The test system of experiment [4] is HL-60. The experiment can be described thus: Cytotoxicity against Homo sapiens (human) HL60 cells after 24 hr by MTT assay. The experiment is classed as functional, cell-based. The settings on record: HL-60, 24 h.
Experiment [5] has as its system HEp-2. As to the kind of experiment: Cytotoxicity against Homo sapiens (human) Hep2 cells after 24 hr by MTT assay. The experiment is classed as functional, cell-based. The settings on record: HEp-2, 24 h. In general terms: Formazan colour is commonly taken as a measure of viable cells.

As a reminder, the inhibition is the change of the read-out against control, counted positive when it falls. In the case of `O=C1CCC(N2C(=O)c3ccccc3C2=O)C(=O)N1` (stereo unspecified), the inhibition in experiment [1] is 28.2%.

In general, IC50 refers to the concentration that inhibits the measured activity by half. Consider `Cc1cccc2c1C(=O)N(Cc1ccc(N)cc1)C2=O`, for which the half-maximal inhibitory concentration (IC50) in experiment [2], in experiment [3] and in experiment [4] was more than 200 µM throughout. Moreover, the inhibition in experiment [1] was 80.7%.

On to `Nc1ccccc1N1C(=O)C2C3C=CC(CC3)C2C1=O` (stereo unspecified), for which the IC50 in experiment [2] is more than 200 µM; in experiment [3], more than 200 µM; in experiment [4], 67.6 µM; in experiment [5], 32.5 µM. In addition, in experiment [1], the inhibition stood at 76.9%.

For the compound `O=C1C2C3C=CC(CC3)C2C(=O)N1c1ccc(Cl)cn1` (stereo unspecified), the IC50 in experiment [2], in experiment [3], in experiment [4] and in experiment [5] was more than 200 µM each time. Further, the inhibition in experiment [1] worked out at 44.9%.

As to `Cc1ccc2c(c1)C(=O)N(c1ccc(/N=N\c3ccccc3)cc1)C2=O`, the 50% inhibitory concentration (IC50) was more than 200 µM in experiment [2], more than 200 µM in experiment [3], 59.5 µM in experiment [4] and 104 µM in experiment [5]. For the same compound, in experiment [1], the inhibition was 91.9%.

On to `O=C1C2C3C=CC(CC3)C2C(=O)N1c1ccccc1` (stereo unspecified), for which the inhibition in experiment [1] was 82%. Also, the IC50 in experiment [3] is more than 200 µM; in experiment [4], 118 µM; in experiment [5], 41.2 µM.

`N#Cc1ccccc1N1C(=O)c2ccccc2C1=O`: the IC50 in experiment [2], in experiment [3], in experiment [4] and in experiment [5] was more than 200 µM throughout. Also, in experiment [1], the inhibition was found to be 80.1%.

On to `O=C1c2ccccc2C(=O)N1c1cccc([N+](=O)[O-])c1`, for which the IC50 in experiment [2] is more than 200 µM; in experiment [4] it was 174 µM; in experiment [5], 179 µM. Also, the inhibition in experiment [1] turned out to be 90.6%.

Consider `Cc1ccc2c(c1)C(=O)N(c1ccc([N+](=O)[O-])cn1)C2=O`, for which the IC50 was more than 200 µM in experiment [2], more than 200 µM in experiment [3], more than 200 µM in experiment [4] and 172 µM in experiment [5]. The inhibition in experiment [1] is 74.8%.

With `O=C1C2C3C=CC(CC3)C2C(=O)N1c1ccc(Br)cn1` (stereo unspecified), the results for the IC50 in experiment [2], in experiment [4] and in experiment [5] were more than 200 µM, more than 200 µM and 150 µM, respectively. In addition, the inhibition in experiment [1] amounted to 56.6%.

In the case of `O=C1C2C3C=CC(CC3)C2C(=O)N1c1ncc(Cl)cc1Cl` (stereo unspecified), the inhibition in experiment [1] came to 77.9%. The IC50 in experiment [3] is more than 200 µM; in experiment [4] it was 139 µM; in experiment [5] it was more than 200 µM.

As for `O=C1C2C3C=CC(CC3)C2C(=O)N1c1ccc(-c2ccccc2)cc1` (stereo unspecified), the IC50 in experiment [2] is more than 200 µM; in experiment [4], 104 µM; in experiment [5], 46.3 µM. Also, in experiment [1], the inhibition came out at 86.6%.

`Nc1ccccc1CN1C(=O)C2C3C=CC(CC3)C2C1=O` (stereo unspecified): the IC50 in experiment [2], in experiment [3] and in experiment [4] was more than 200 µM each time. The inhibition in experiment [1] turned out to be 75.5%.

Consider `O=C1c2ccccc2C(=O)N1c1ccccc1` [N-PHENYL-PHTHALIMIDE], for which the IC50 in experiment [2], in experiment [4] and in experiment [5] was more than 200 µM each time. Besides, the inhibition in experiment [1] amounted to 89.2%.

As to `Nc1cccc(CN2C(=O)c3ccccc3C2=O)c1`, the IC50 in experiment [2] is more than 200 µM; in experiment [3], more than 200 µM; in experiment [4] it was 78.1 µM. Also, the inhibition in experiment [1] was 91.9%.

As for `Cc1ccc2c(c1)C(=O)N(Cc1ccccc1N)C2=O`, the IC50 in experiment [2], in experiment [3] and in experiment [4] was more than 200 µM in each case. Moreover, the inhibition in experiment [1] is 98.4%.

With `Nc1cccc(N2C(=O)C3C4C=CC(CC4)C3C2=O)c1` (stereo unspecified), the inhibition in experiment [1] was 68.4%. Besides, the IC50 was more than 200 µM in experiment [3], 64.1 µM in experiment [4] and 53.4 µM in experiment [5].

In the case of `COc1ccc(N2C(=O)c3ccccc3C2=O)cc1`, the IC50 in experiment [2], in experiment [3], in experiment [4] and in experiment [5] was more than 200 µM in each case. In addition, the inhibition in experiment [1] amounted to 87.3%.

For `O=C1c2ccccc2C(=O)N1c1ccc(-c2ccccc2)cc1`, the IC50 in experiment [2] was more than 200 µM; in experiment [3], more than 200 µM; in experiment [4], 119 µM; in experiment [5], 40.4 µM. For the same compound, in experiment [1], the inhibition was determined as 84.6%.

`N#Cc1ccc(N2C(=O)[C@@H]3C4C=CC(CC4)[C@@H]3C2=O)cc1`: the inhibition in experiment [1] came out at 68.4%. In addition, the IC50 in experiment [3] is more than 200 µM.

On to `Nc1ccc(N2C(=O)c3cccc4cccc(c34)C2=O)cc1`, for which the IC50 is more than 200 µM in experiment [2], more than 200 µM in experiment [3], more than 200 µM in experiment [4] and 43.9 µM in experiment [5]. The inhibition in experiment [1] was 90.6%.

For `Cc1ccc2c(c1)C(=O)N(c1ccc(-c3ccccc3)cc1)C2=O`, the inhibition in experiment [1] worked out at 70.9%. In addition, the values for the concentration for half-maximal inhibition (IC50) in experiment [3], in experiment [4] and in experiment [5] were more than 200 µM, 59.5 µM and 104 µM, respectively.

For `CC1=C(C)C(=O)N(Cc2ccccc2N)C1=O`, the values for the IC50 in experiment [2], in experiment [3] and in experiment [4] were more than 200 µM, more than 200 µM and 139 µM, respectively. Moreover, the inhibition in experiment [1] amounted to 72.8%.

For the compound `COc1ccc(N2C(=O)C3C4C=CC(CC4)C3C2=O)cc1` (stereo unspecified), the IC50 in experiment [2], in experiment [4] and in experiment [5] was more than 200 µM in each case. In addition, the inhibition in experiment [1] amounted to 84.6%.

`Nc1cccc(N2C(=O)c3cccc4cccc(c34)C2=O)c1`: the IC50 in experiment [2] is more than 200 µM; in experiment [3], more than 200 µM; in experiment [4], more than 200 µM; in experiment [5] it was 147 µM. For the same compound, the inhibition in experiment [1] was found to be 81.4%.

Regarding `O=C1c2ccccc2C(=O)N1c1ccccc1N1C(=O)c2ccccc2C1=O`, the IC50 was more than 200 µM in experiment [2], more than 200 µM in experiment [3], more than 200 µM in experiment [4] and 56.8 µM in experiment [5]. The inhibition in experiment [1] worked out at 85.3%.

With `O=C1c2ccccc2C(=O)N1c1ccccn1`, the IC50 in experiment [2] is more than 200 µM; in experiment [3], 156 µM; in experiment [4], more than 200 µM; in experiment [5], 65.8 µM. In experiment [1], the inhibition worked out at 67.6%.

Take `Nc1ccc(CN2C(=O)c3ccccc3C2=O)cc1`: the IC50 in experiment [2], in experiment [3] and in experiment [4] was more than 200 µM in each case. Also, the inhibition in experiment [1] was determined as 81.4%.

As for `O=C1c2cccc3cccc(c23)C(=O)N1c1ccccc1`, the half-maximal inhibitory concentration (IC50) is more than 200 µM in experiment [2], more than 200 µM in experiment [3], more than 200 µM in experiment [4] and 44.2 µM in experiment [5]. Besides, the inhibition in experiment [1] is 67.6%.

Take `O=C1c2ccccc2C(=O)N1c1ccc(S)cc1`: the IC50 in experiment [2], in experiment [3], in experiment [4] and in experiment [5] was more than 200 µM each time. In addition, the inhibition in experiment [1] amounted to 94.5%.

For the compound `Nc1ccc(N2C(=O)[C@@H]3C4C=CC(CC4)[C@@H]3C2=O)cc1`, the inhibition in experiment [1] was 87.9%. The values for the concentration for half-maximal inhibition (IC50) in experiment [4] and in experiment [5] were 166 µM and more than 200 µM, respectively.

As to `O=C1C2C3C=CC(CC3)C2C(=O)N1c1ccc(S)cc1` (stereo unspecified), the inhibition in experiment [1] came to 87.9%.

In the case of `O=C1c2ccccc2C(=O)N1c1ccc(Cl)cn1`, the IC50 in experiment [2] was more than 200 µM; in experiment [3] it was more than 200 µM; in experiment [4], 67.2 µM; in experiment [5] it was 56.7 µM. For the same compound, the inhibition in experiment [1] is 94.5%.

In the case of `O=C1c2ccccc2C(=O)N1c1ccc(Cl)cc1`, the IC50 was more than 200 µM in experiment [2], more than 200 µM in experiment [4] and 178 µM in experiment [5]. In experiment [1], the inhibition worked out at 71.5%.
